# Results as given in patent US12053480B2, “Methods and pharmaceutical compositions for treating peripheral demyelinating diseases” (INSERM (INSTITUT NATIONAL DE LA SANTE ET DE LA RECHERCHE …, priority 2015, dated 2024).
# Entries after “also recorded” stand apart in the source; their conditions may differ.
# Experiments:
# [1] = test system: phospho-ERK1/2, phospho-p38, phospho-JNK and phospho-c-jun; experiment: Western blot of demyelination signaling pathways in sciatic nerve after crush or MJ; format: in vivo, mouse; conditions: western blot 4 and 12 hours after crush; treated before crush
# Protocol: TRO19622 drug (Tocris bioscience, Ref. 2906) was diluted in ethanol to 20 mM and then, the solution was diluted in sterile PBS to 20 μM. TRO19622 treatments were realized by 3 mg/kg intraperitoneal (IP) injections of 20 mM solution or by intra sciatic nerve injections of 2 μl of drug solution 2 μM using a Hamilton syringe or a glass needle in sterile conditions 30 minutes before multiphoton image acquisitions or immunohistochemistry and demyelination studies respectively. Methyl jasmonate drug (Sigma-Aldrich, Ref. 392707) was diluted in 1 ml of sterile PBS to 1M or 3M. Methyl jasmonate treatments were realized by intra sciatic nerve injections of 1 μl of drug solution using a glass needle and micromanipulator in sterile conditions following the same virus injections procedure (see in vivo virus injection in the sciatic nerve method) two hours before multiphoton image acquisition. […] All drug concentrations were previously evaluated by Bordet et al, 2007^5; Goldin et al, 2008^6; Sharov et al, 2007^7.
# [2] = test system: CMT1A rats; experiment: Behavioral motor tests (rotarod, grip, CatWalk) in CMT1A rats; format: in vivo, rat
# Protocol: (§1) […] Mice and rats were first given a pretraining trial of two days to familiarize them with the rotating rod. For control and diabetic mice latency to fall was measured at fixed speed 10 rpm over a 180 s time as a cut-off. No acceleration testing was performed for mice. For control and CMT1A rats latency to fall and maximum rpm (revolutions per minute) were measured at accelerated speed. […] Each animal underwent three trials a day. For each day, data were averaged for each animal (values from the three trials), normalized according to animal weight and then averaged for each treated group.
# Detailed analysis of gait was performed on free-walking 16 weeks old diabetic mice and 12 weeks old CMT1A rats using the CatWalk method (CatWalk XT 10.5, Noldus Information Technology) during PBS or TRO19622 treatment. The runs were analyzed when the speed of crossing was constant and homogenous. At least three compliant runs were analyzed for each animal Data were averaged per animal, normalized according to animal weight and then per treated group. The resulting data provided quantitative parameters and qualitative walking patterns.
# (§2) Neuromuscular strength of diabetic mice and CMT rats was assessed in standardized grip strength tests for front, hind and all limbs. All limbs grip strength was measured by rat supporting on the metal grid and pulling the animal's tail toward a horizontal grid connected to a gauge. Front and hind limb grip strength were measured by supporting the forelimbs or hindlimbs respectively and pulling the animal's tail toward a horizontal T-bar connected to a gauge. The maximum force (measured in newtons) exerted onto the T-bar or grid before the animals lost grip was recorded, and the mean of 3 repeated measurements was calculated. All data were normalized according to animal weight.
# Finally, we studied the neuromuscular performance of CMT1A and control rats using behavioral motor tests. […] Moreover, using catwalk test we observed a decrease of paw time stand (FIG. 2B), hind paw distance (FIG. 2C) and an increase of paw print area (FIG. 2D). […] Therefore inhibiting mitochondrial calcium release through VDAC1 opens a major avenue toward the treatment of human CMT1A.
# [3] = test system: diabetic (db/db) mice; experiment: Behavioral tests (rotarod, grip, CatWalk) in diabetic mice; format: in vivo, mouse
# Protocol: as §1
# […] The runs were analyzed when the speed of crossing was constant and homogenous. At least three compliant runs were analyzed for each animal Data were averaged per animal, normalized according to animal weight and then per treated group. The resulting data provided quantitative parameters and qualitative walking patterns.
# as §2
# Finally, although the obesity of db/db diabetic mice hinders functional motor tests, we evaluated their neuromuscular performances during drug treatment using rotarod, grip and Catwalk tests. […] Rotarod and grip strength recoveries were not due to a reduced weight as no change in mice weight was observed during treatment.
# [4] = biological target: T1, VDAC1 (Mus musculus, UniProt Q60932); experiment: Fluorescent probe imaging of mSC mitochondria in diabetic db/db mice, basal conditions; format: in vivo
# T1 construct: strongly expressed in mSC mitochondria; from tissue; host or cells: myelinating Schwann cells (mSC) of the sciatic nerve of living mice (wild type; db/db and +/db in A10)
# Protocol: Mice were anesthetized with isoflurane inhalation and placed under a Stemi2000 microscope (Zeiss). Incision area was shaved and cleaned using betadine solution. After incision, the gluteus superficialis and biceps femoris muscles were separated to reveal the cavity traversed by the sciatic nerve. The nerve was lift out using spatula and a thin glass needle filled with viral solution (8 μl) was introduced into the nerve with a micromanipulator. This solution was injected over 30 min with short pressure pulses using a Picospritzer III (Parker Hannifin) coupled to a pulse generator. After injection, the nerve was replaced into the cavity, the muscles were readjusted, and the wound was closed using clips (for further details see Gonzalez et al., 2014^3).
# TRO19622 drug (Tocris bioscience, Ref. 2906) was diluted in ethanol to 20 mM and then, the solution was diluted in sterile PBS to 20 μM. TRO19622 treatments were realized by 3 mg/kg intraperitoneal (IP) injections of 20 mM solution or by intra sciatic nerve injections of 2 μl of drug solution 2 μM using a Hamilton syringe or a glass needle in sterile conditions 30 minutes before multiphoton image acquisitions or immunohistochemistry and demyelination studies respectively. […] All drug concentrations were previously evaluated by Bordet et al, 2007^5; Goldin et al, 2008^6; Sharov et al, 2007^7. […]
# [5] = CMT1A rats treated for one month
# T1 sequence (Q60932 14-296): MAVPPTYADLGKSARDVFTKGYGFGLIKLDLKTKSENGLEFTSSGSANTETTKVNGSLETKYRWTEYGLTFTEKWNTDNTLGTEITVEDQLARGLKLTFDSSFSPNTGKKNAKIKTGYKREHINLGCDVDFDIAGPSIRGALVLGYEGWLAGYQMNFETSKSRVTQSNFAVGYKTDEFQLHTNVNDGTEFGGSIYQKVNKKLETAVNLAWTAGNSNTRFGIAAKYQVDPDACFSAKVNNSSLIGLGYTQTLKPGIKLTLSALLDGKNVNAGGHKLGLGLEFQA
smiles,measurement,setting,value
"CC(C)CCC[C@@H](C)[C@H]1CC[C@H]2[C@@H]3CCC4=C/C(=N\O)CC[C@]4(C)[C@H]3CC[C@]12C [TRO19622, (NZ)—N-[(8S,9S,10R,13R,14S,17R)-10,13-dimethyl-17-[(2R)-6-methylheptan-2-yl]-1,2,6,7,8,9,11,12,14,15,16,17-dodecahydrocyclopenta[a]phenanthren-3-ylidene]hydroxylamine]","increase in phospho-ERK1/2, phospho-p38, phospho-JNK and phospho-c-jun after nerve crush",[1],strongly reduced
same,grip strength,[2]; [5],significant increase
same,latency on accelerating rotarod,[2]; [5],significant increase
same,"effects on demyelination, g-ratio and behavioral motor tests after stopping the treatment","[2]; CMT1A rats, 2 months after stopping the treatment",disappeared; also recorded: did not last
same,hind paw distance,"[2]; CMT1A rats, catwalk test",decrease
same,paw print area,"[2]; CMT1A rats, catwalk test",increase
same,paw time stand,"[2]; CMT1A rats, catwalk test",decrease
same,Catwalk test parameters,[3],no change
same,"myelin thickness, nerve conduction velocity and neuromuscular defects (all these parameters)",[3],steadily improve
same,"effects on MAPK activation, nerve structure and neuromuscular performance after stopping the treatment",[3]; 2 months after stopping the treatment,did not last
same,grip strength,[3]; 20 days after treatment,significant increase
same,rotarod latency,[3]; 20 days after treatment,significant increase
same,mitochondrial motility,[4],increased
same,mitochondrial pH,[4],significantly reduced
